From PubChem BioAssay (NCI)
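Exposure lasted 48 hours, with cells grown in 96-well plates and compounds tested at five concentrations. At the GI50, growth is halved. The concentration for full growth arrest is given as TGI.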

How the values were obtained:
Test in all cases: inhibition of tumour cell growth, NCI panel, 48 h
[1] = system: 786-0 renal
[2] = system: A498 renal
[3] = system: A549 NSCLC
[4] = system: ACHN renal
[5] = system: BT-549 breast
[6] = system: CAKI-1 renal
[7] = system: CCRF-CEM leukemia
[8] = system: COLO 205 colon
[9] = system: DU-145 prostate
[10] = system: EKVX NSCLC
[11] = system: HCC-2998 colon
[12] = system: HCT-116 colon
[13] = system: HCT-15 colon
[14] = system: HL-60(TB) leukemia
[15] = system: HOP-62 NSCLC
[16] = system: HS 578T breast
[17] = system: HT29 colon
[18] = system: IGROV1 ovarian
[19] = system: K-562 leukemia
[20] = system: KM12 colon
[21] = system: LOX IMVI melanoma
[22] = system: M14 melanoma
[23] = system: MALME-3M melanoma
[24] = system: MCF7 breast
[25] = system: MDA-MB-231 breast
[26] = system: MDA-MB-435
[27] = system: MOLT-4 leukemia
[28] = system: NCI-H226 lung
[29] = system: NCI-H23 lung
[30] = system: NCI-H460 lung
[31] = system: NCI-H522 lung
[32] = system: NCI/ADR-RES ovarian
[33] = system: OVCAR-3 ovarian
[34] = system: OVCAR-4 ovarian
[35] = system: OVCAR-5 ovarian
[36] = system: OVCAR-8 ovarian
[37] = system: PC-3 prostate
[38] = system: RPMI-8226 leukemia
[39] = system: RXF 393 renal
[40] = system: SF-268 CNS
[41] = system: SF-295 CNS
[42] = system: SF-539 CNS
[43] = system: SK-MEL-2 melanoma
[44] = system: SK-MEL-28 melanoma
[45] = system: SK-MEL-5 melanoma
[46] = system: SK-OV-3 ovarian
[47] = system: SN12C renal
[48] = system: SNB-19 CNS
[49] = system: SNB-75 CNS
[50] = system: SR leukemia
[51] = system: SW-620 colon
[52] = system: T-47D breast
[53] = system: TK-10 renal
[54] = system: U251 CNS
[55] = system: UACC-257 melanoma
[56] = system: UACC-62 melanoma
[57] = system: UO-31 renal

SMILES: COc1ccc(C2CC(c3ccc(N(C)C)cc3)=NN2c2ccc(S(N)(=O)=O)cc2)cc1 (centres undefined)
- GI50 [1]: 3.79 µM
- TGI [1]: 20.6 µM
- GI50 [2]: 2150 nM
- TGI [2]: 8.53 µM
- GI50 [3]: 3.16 µM
- TGI [3]: > 100 µM
- GI50 [4]: 3.37 µM
- TGI [4]: > 100 µM
- GI50 [5]: 2990 nM
- TGI [5]: 8.7 µM
- GI50 [6]: 3.35 µM
- TGI [6]: > 100 µM
- GI50 [7]: 5.24 µM
- TGI [7]: > 100 µM
- GI50 [8]: 2460 nM
- TGI [8]: 5.49 µM
- GI50 [9]: 4.84 µM
- TGI [9]: > 100 µM
- GI50 [10]: 3.79 µM
- TGI [10]: > 100 µM
- GI50 [11]: 2990 nM
- TGI [11]: 12.4 µM
- GI50 [12]: 2120 nM
- TGI [12]: 4.77 µM
- GI50 [13]: 2990 nM
- TGI [13]: > 100 µM
- GI50 [14]: 3.99 µM
- TGI [14]: 86.3 µM
- GI50 [15]: 3.96 µM
- TGI [15]: > 100 µM
- GI50 [16]: 5.52 µM
- TGI [16]: 42.6 µM
- GI50 [17]: 3.5 µM
- TGI [17]: 10.7 µM
- GI50 [18]: 4.31 µM
- TGI [18]: > 100 µM
- GI50 [19]: 3.8 µM
- TGI [19]: > 100 µM
- GI50 [20]: 3.68 µM
- TGI [20]: > 100 µM
- GI50 [21]: 1870 nM
- TGI [21]: 4.02 µM
- GI50 [22]: 4.42 µM
- TGI [22]: > 100 µM
- GI50 [23]: 4.12 µM
- TGI [23]: 28.1 µM
- GI50 [24]: 3 µM
- TGI [24]: 21.7 µM
- GI50 [25]: 4.73 µM
- TGI [25]: 60.3 µM
- GI50 [26]: 3.25 µM
- TGI [26]: 34.4 µM
- GI50 [27]: 3.91 µM
- TGI [27]: > 100 µM
- GI50 [28]: 2540 nM
- TGI [28]: 8.09 µM
- GI50 [29]: 3.13 µM
- TGI [29]: > 100 µM
- GI50 [30]: 2440 nM
- TGI [30]: 5.53 µM
- GI50 [31]: 2690 nM
- TGI [31]: 6.69 µM
- GI50 [32]: 4.73 µM
- TGI [32]: > 100 µM
- GI50 [33]: 3.02 µM
- TGI [33]: 8.18 µM
- GI50 [34]: 3.19 µM
- TGI [34]: > 100 µM
- GI50 [35]: 6.57 µM
- TGI [35]: > 100 µM
- GI50 [36]: 3.98 µM
- TGI [36]: > 100 µM
- GI50 [37]: 3.65 µM
- TGI [37]: > 100 µM
- GI50 [38]: 3.26 µM
- TGI [38]: 13.2 µM
- GI50 [39]: 2560 nM
- TGI [39]: 7.52 µM
- GI50 [40]: 5.76 µM
- TGI [40]: > 100 µM
- GI50 [41]: 3.42 µM
- TGI [41]: > 100 µM
- GI50 [42]: 4.32 µM
- TGI [42]: 56.1 µM
- GI50 [43]: 4 µM
- TGI [43]: 14.3 µM
- GI50 [44]: 4.81 µM
- TGI [44]: 93.8 µM
- GI50 [45]: 1730 nM
- TGI [45]: 3.37 µM
- GI50 [46]: 4.38 µM
- TGI [46]: > 100 µM
- GI50 [47]: 2150 nM
- TGI [47]: 4.63 µM
- GI50 [48]: 5.94 µM
- TGI [48]: > 100 µM
- GI50 [49]: 5.42 µM
- TGI [49]: > 100 µM
- GI50 [50]: 3.77 µM
- TGI [50]: > 100 µM
- GI50 [51]: 4.06 µM
- TGI [51]: > 100 µM
- GI50 [52]: 4.51 µM
- TGI [52]: > 100 µM
- GI50 [53]: 4.32 µM
- TGI [53]: 35 µM
- GI50 [54]: 3.28 µM
- TGI [54]: > 100 µM
- GI50 [55]: 4.48 µM
- TGI [55]: > 100 µM
- GI50 [56]: 5.85 µM
- TGI [56]: > 100 µM
- GI50 [57]: 3.01 µM
- TGI [57]: 54.8 µM
